Assay results taken from patent publication US4302448A, “Secretin preparations with intensified and protracted action, process for their manufacture, their use as well as dihydroxybenzoyl-L-tyrosine” (Hoechst Aktiengesellschaft, priority 1979, dated 1981).
Where a SMILES comes first, the peptide text is derived from it. Side-chain parts run from the residue outwards. [ ]: non-standard residue; d: D form. The star is where a group is joined. Cbz = O=C(OCc1ccccc1)*

System: Pancreatic juice secretion of the rat
Experiment: Pancreatic juice secretion of the rat after subcutaneous administration of secretin with depot bodies
Type: in vivo
Details: for Δ% vs. control (percentage by which the pancreatic secretion is above the basal secretion after 5 hours) / Rel. Intensity of effect over 5 hours (total pancreatic juice secretion over 5 hours as compared with control): rat, subcutaneous, 5 CU/kg secretin + 10 mg depot body/animal; for Δ% vs. control (percentage by which the pancreatic secretion is above the basal secretion after 5 hours): control=100%, measure of depot effect; for Rel. Intensity of effect over 5 hours (total pancreatic juice secretion over 5 hours as compared with control): control (0.9% of NaCl)=1
Protocol: Secretin preparations for subcutaneous application which contained the depot bodies specified in the following Table were tested in animal experiments. In the experimental procedure chosen, 5 to 8 male rats weighing 300 to 500 g each are administered subcutaneously 5 CU/kg of secretin (CU means clinical unit) and 10 mg of the depot body to be tested each in aqueous solution or suspension.
The animals remain without food for 18 hours prior to the test, but they are given water ad libitum. Under urethane anaesthesia (5 ml/kg i.m. of 25% urethane) the abdomen is opened by median section after tracheotomy, and the pylorus is ligated. The ductus choledochus is tied off in its proximal part near the porta hepatis, and the bile is led into the duodenum via a polyethylene tube of a diameter of […]. A cannula or catheter is inserted into the distal part of the bile duct, into which the numerous pancreatic ducts open, immediately before it opens into the duodenum, and the volume of the secretion running off is measured in 60 minute intervals. Following a preliminary run of 60 minutes the preparations are administered.
L means the compound known from literature and characterized by the melting point, optionally UV, IR or NMR. A to C relate to the preparation according to Example 1, process A to C. These compounds were characterized by ultimate analysis. The third column indicates the percentage by which the pancreatic secretion is above the basal secretion after 5 hours (calculated on the control=100%). This value is a measure for the depot effect of the depot body tested. Column 4 indicates the intensification of the secretin effect, with the total pancreatic juice secretion having been given over 5 hours as compared with the control (0.9% of NaCl)=1.

Row | Compound | Δ% vs. control (percentage by which the pancreatic secretion is above the basal secretion after 5 hours) [%] | Rel. Intensity of effect over 5 hours (total pancreatic juice secretion over 5 hours as compared with control) | protracted and intensified action of secretin (in words) (subcutaneous secretin preparations with depot body)
1 | CC(=O)c1ccc(O)cc1 [4-Hydroxyacetophenone] | 43 | 8.1 | 
2 | O=S(=O)([O-])c1ccc(O)cc1.[Na+] [4-Hydroxybenzene-sulfonic acid-Na] | 18 | 2.7 | 
3 | O=C(O)c1ccc(O)cc1 [4-Hydroxybenzoic acid] | 38 | 3.8 | 
4 | O=C(c1ccccc1)c1ccc(O)cc1 [4-Hydroxybenzophenone] | 70 | 6.7 | 
5 | Oc1cccc2cccnc12 [8-Hydroxyquinoline] | 37 | 4.7 | 
6 | O=C(N[C@@H](Cc1ccc(O)cc1)C(=O)O)OCc1ccccc1 [Benzyloxycarbonyl-L-tyrosine] | 7 | 5.9 | 
7 | O=C(N[C@@H](Cc1ccc(O)cc1)C(=O)N[C@@H](Cc1ccc(O)cc1)C(=O)O)OCc1ccccc1 [Benzyloxycarbonyl-L-tyrosyl-L-tyrosine] (Cbz-Tyr-Tyr-OH) | 62 | 7.5 | 
8 | O=C(NCCNC(=O)c1ccc(O)cc1O)c1ccc(O)cc1O [Bis-(2,4-dihydroxybenzoyl-)-diaminoethane] | 69 | 6.5 | 
9 | O=C(N[C@@H](Cc1ccc(O)cc1)C(=O)NCCCC[C@H](NC(=O)[C@H](Cc1ccc(O)cc1)NC(=O)c1cc(O)cc(O)c1)C(=O)N(CCO)CCO)c1cc(O)cc(O)c1 [Nα,Nε-Bis(3,5-dihydroxybenzoyl-L-tyrosyl)-L-lysine-diethanol-amide] | 86 | 8.8 | 
10 | O=C(N[C@@H](Cc1ccc(O)cc1)C(=O)NCCCC[C@@H](NC(=O)[C@H](Cc1ccc(O)cc1)NC(=O)OCc1ccccc1)C(=O)O)OCc1ccccc1 [Nα,Nε-Bis-(benzyloxycarbonyl-L-tyrosyl)-D-lysine] (Cbz-Tyr-[dK]([Tyr-Cbz])-OH) | 13 | 1.5 | 
11 | NC(=O)[C@H](CCCCNC(=O)[C@H](Cc1ccc(O)cc1)NC(=O)OCc1ccccc1)NC(=O)[C@H](Cc1ccc(O)cc1)NC(=O)OCc1ccccc1 [Nα,Nε-Bis-(benzyloxycarbonyl-L-tyrosyl)-L-lysine-amide] (Cbz-Tyr-Lys([Tyr-Cbz])-NH2) | 90 | 8.4 | 
12 | COC(=O)[C@H](CCCCNC(=O)[C@H](Cc1ccc(O)cc1)NC(=O)OCc1ccccc1)NC(=O)[C@H](Cc1ccc(O)cc1)NC(=O)OCc1ccccc1 [Nα,Nε-Bis-(benzyloxycarbonyl-L-tyrosyl)-L-lysine-methyl ester] (Cbz-Tyr-Lys([Tyr-Cbz])-OMe) | 93 | 8.2 | 
13 | O=C(N[C@@H](Cc1ccc(O)cc1)C(=O)NCCCC[C@H](NC(=O)[C@H](Cc1ccc(O)cc1)NC(=O)OCc1ccccc1)C(=O)O)OCc1ccccc1 [Nα,Nε-Bis-(benzyloxycarbonyl-L-tyrosyl)-L-lysine] (Cbz-Tyr-Lys([Tyr-Cbz])-OH) | 48 | 7.0 | 
14 | Oc1ccccc1 [Phenol] | 51 | 8 | clearly evident
15 | O=C(CCc1ccc(O)cc1)c1c(O)cc(O)cc1O [Phloretin] | 180 | 8.2 | 
16 | Oc1cc(O)cc(O)c1 [Phloroglucine] | 15 | 6.6 | 
17 | Oc1cccc(O)c1O [Pyrogallol] | 41 | 5.1 | 

Row | Compound | Δ% vs. control (percentage by which the pancreatic secretion is above the basal secretion after 5 hours) [%] | Rel. Intensity of effect over 5 hours (total pancreatic juice secretion over 5 hours as compared with control) | protracted and intensified action of secretin (in words) (subcutaneous secretin preparations with depot body)
18 | Oc1cccc(O)c1 [Resorcinol] | 55 | 6.1 | 
19 | O=C(NCCN(CCN(CCNC(=O)c1c(O)cccc1O)C(=O)c1c(O)cccc1O)C(=O)c1c(O)cccc1O)c1c(O)cccc1O [Tetra-(2,6-dihydroxybenzoyl)-triethylene-tetramine] | 78 | 8.1 | 
20 | O=C(NCCN(CCN(CCNC(=O)c1ccccc1O)C(=O)c1ccccc1O)C(=O)c1ccccc1O)c1ccccc1O [Tetra-(2-hydroxybenzoyl)-triethylene-tetramine] | 91 | 9.0 | 
21 | O=C(NCCN(CCN(CCNC(=O)c1cc(O)cc(O)c1)C(=O)c1cc(O)cc(O)c1)C(=O)c1cc(O)cc(O)c1)c1cc(O)cc(O)c1 [Tetra-(3,5-dihydroxybenzoyl)-triethylene-tetramine] | 101 | 9.7 | 
22 | O=C(N[C@@H](Cc1ccc(O)cc1)C(=O)NCCN(CCN(CCNC(=O)[C@H](Cc1ccc(O)cc1)NC(=O)c1cc(O)cc(O)c1)C(=O)[C@H](Cc1ccc(O)cc1)NC(=O)c1cc(O)cc(O)c1)C(=O)[C@H](Cc1ccc(O)cc1)NC(=O)c1cc(O)cc(O)c1)c1cc(O)cc(O)c1 [Tetra-(3,5-dihydroxybenzoyl-L-tyrosyl)-triethylene-tetramine] | 98 | 9.5 | 
23 | O=C(NCCN(CCN(CCNC(=O)c1cccc(O)c1)C(=O)c1cccc(O)c1)C(=O)c1cccc(O)c1)c1cccc(O)c1 [Tetra-(3-hydroxybenzoyl-)triethylene-tetramine] | 95 | 9.1 | 
24 | O=C(NCCN(CCNC(=O)c1cc(O)cc(O)c1)C(=O)c1cc(O)cc(O)c1)c1cc(O)cc(O)c1 [Tris-(3,5-dihydroxybenzoyl-diethylene-triamine] | 79 | 8.6 | 
25 | Bis-(2,4-dihydroxybenzoyl)-1,4-diaminobutane | 83 | 6.7 | 
26 | Bis-(2,4-dihydroxybenzoyl-L-tyrosine)-diaminoethane | 82 | 6.0 | 
27 | Bis-(2-carboxybenzoyl-L-tyrosine)-diaminoethane | 48 | 6.3 | 
28 | Bis-(2-hydroxybenzoyl)-diaminoethane | 72 | 5.9 | 
29 | Bis-(3,5-dihydroxybenzoyl)-1,4-diaminobutane | 85 | 7.4 | 
30 | Bis-(3,5-dihydroxybenzoyl)-diaminoethane | 79 | 6.1 | 
31 | Bis-(3,5-dihydroxybenzoyl-L-tyrosine)-diaminoethane | 58 | 7.0 | 
32 | Bis-(3-benzoylpropionyl-L-tyrosine)-diaminoethane | 60 | 3.7 | 
33 | Bis-(benzyloxycarbonyl-L-tyrosine)-diaminoethane | 44 | 5.5 | 
